# Measured values published in US12497356B2, “Stable formulation of arylsulfonylpropenenitriles” (KEMIRA OYJ, priority 2019, dated 2025).
# How the values were obtained:
# [1] = Stability with different solvents (initial tests, HPLC-DAD); type: physicochemical; details: room temperature
# Experimental: The stability of (E)-3-tosylacrylonitrile in different solvents, concentrations and temperatures was studied. The initial tests were conducted at room temperature and the tested solvents were i) propylene carbonate; ii) ethanol; iii) dimethylsulfoxide (DMSO); iv) combination of 35% ethanol-65% propylene glycol; v) water at pH 4; and water at pH 8. The amount of (E)-3-tosylacrylonitrile was analysed with HPLC-DAD. For sample pre-treatment, an approximately 1.45 mg/ml solution of (E)-3-tosylacrylonitrile was prepared in acetonitrile and the solution was analysed by HPLC. Quantification was performed using external (ESTD) calibration with authentic standards. Results from the initial tests with propylene carbonate, ethanol, dimethylsulfoxide, 35% ethanol-65% propylene glycol, and water are presented in FIG. 1.
# [2] = Long-time stability in propylene carbonate (second round of tests, HPLC-DAD); type: physicochemical
# Experimental: The amount of (E)-3-tosylacrylonitrile was analysed with HPLC-DAD. For sample pre-treatment, an approximately 1.45 mg/ml solution of (E)-3-tosylacrylonitrile was prepared in acetonitrile and the solution was analysed by HPLC. Quantification was performed using external (ESTD) calibration with authentic standards. After the initial tests, a second round of tests were conducted with propylene carbonate. The stability of (E)-3-tosylacrylonitrile in propylene carbonate was tested at 10 mg/ml and 50 mg/ml concentrations and at different temperatures. The effect of light on the stability was also examined (FIGS. 2 and 3).
smiles,measurement,setting,value
Cc1ccc(S(=O)(=O)/C=C/C#N)cc1 [(E)-3-tosylacrylonitrile],dissolving in propylene carbonate,[1]; propylene carbonate,dissolved immediately
same,stability in propylene carbonate (short-term),[1]; propylene carbonate,stable for at least one month
same,dissolving in the tested solvent,"[1]; most tested solvents (ethanol, DMSO, 35% ethanol-65% propylene glycol, water pH 4, water pH 8)",did not dissolve thoroughly in the tested solvent or dissolving continued for several days
same,final concentration of (E)-3-tosylacrylonitrile after 6 months,"[2]; 10 mg/ml and 50 mg/ml, all tested conditions (different temperatures, light), 6 months",above 90%
same,degradation in propylene carbonate,[2]; 10 and 50 mg/ml,slow
same,stability in propylene carbonate,"[2]; 10 and 50 mg/ml, different temperatures, light",good even in harsh conditions
